Like-named read-outs stand apart in the source and are kept apart here.
Tests used:
[1] = test system: CHO-S cells expressing IgG1 mAb1; format: cell-based, Chinese hamster; conditions: Spin tubes
Method: (§1) Assays were performed with 2 CHO cell lines: • CHO-S cells expressing IgG1 mAb1, herein “Cells mAb1” or “mAb1 cells”. “mAb1” is a fully human monoclonal antibody directed against a soluble protein. Its isoelectric point (pI) is about 8.20-8.30. • CHO-K1 cells expressing IgG1 mAb2, herein “Cells mAb2” or “mAb2 cells”. “mAb2” is a humanised monoclonal antibody directed against a receptor found on the cell membrane. Its isoelectric point (pI) is about 9.30.
(§2) Cells expressing mAb2 were inoculated at 0.2×10^6 cells per milliliter (mL), whereas cells expressing mAb1 were inoculated at 0.3×10^6 cells per mL.
(§3) All assays were performed in fed-batch culture. The host cells were cultured in fed-batch system either in microplates (“Deep well plate”) or in Spin Tubes®, and incubated at 36.5° C., 90% relative humidity, 5% CO2 and 320 rpm shaking during 14 days.
(§4) Viable cell density and viability were measured with the Guava easyCyte® flow cytometer or with the ViCell.
(§5) Antibody titres were measured either with the fortéBIO Octet® or with Biacore C®.
(§6) Glycosylation profiles were established by capillary gel electrophoresis with laser-induced fluorescence (CGE-LIF). Dosages of aggregates and fragments were performed respectively via Size Exclusion High Performance Liquid Chromatography (SE-HPLC) and via SDS-capillary gel electrophoresis.
(§7) The efficacy of DIDS was also tested in Spin tubes at concentrations around 40 μM (41 μM) and/or around 85 μM (82 μM for mAb1 and 87 μM for mAb2). These concentrations are not toxic for the host cells expressing the antibodies mAb1 and mAb2 and allowed to obtain an important increase of the cell density and the titre of the antibody mAb1 (FIG. 3). As expected for the cells expressing the antibody mAb1, the viable cell density and the specific production increase in the presence of DIDS, which allowed at DIDS concentration of 82 μM to multiply the titre by factor 1.4 comparing to the control (FIGS. 3A-3D). […] Similar results are observed for mAb2: DIDS allowed the increase of the specific productivity of the host cells expressing the antibodies mAb2 (about 20% increase at day 10), and is able to maintain the viability of the cells for about 10 days (FIGS. 3E-H).

[2] = test system: CHO-K1 cells expressing IgG1 mAb2; format: cell-based, Chinese hamster
Method: as §1, §2, §3, §4, §5, §6, §7

[3] = test system: CHO-S cells expressing IgG1 mAb1; experiment: Fed-batch cell culture in microplates, cells expressing mAb1, with DIDS; format: cell-based, Chinese hamster
Method: as §1, §2, §3, §4, §5, §6
The host cells expressing the antibody mAb1 were cultured in presence of DIDS at concentrations ranging from 0.4 μM to 83 μM. The cell density and the viability were measured during the culture, whereas the titre was measured on day 14 (FIGS. 1A-1C). Addition of DIDS in the culture medium allowed increase of viable cell density and the titre. Specifically the concentration of 83 μM of DIDS allowed to double the cell density at day 7 (WD7) and to multiply the titre by factor 1.4 at the end of the culture process at day 14 (WD14). The viability was maintained, compared to the control, until day 12.

recombinant CHO cells [4] = conditions: perfusion batch culture, within 6 days of treatment; cited from earlier work
recombinant CHO cells [5] = conditions: batch culture, end of the production run (after 8 days of culture); cited from earlier work
[6] = in the presence of DIDS (41 μM, 82 μM)

SMILES	titre multiplied by factor ([1]; 82 μM DIDS, comparing to the control)	toxicity for the host cells expressing mAb1 ([1]; DIDS 41 μM and 82 μM)	specific production [1, 6]	viable cell density [1, 6]	toxicity for the host cells expressing mAb2 ([2]; DIDS around 40 μM (41 μM) and/or 87 μM, Spin tubes)	time for which viability of the cells is maintained ([2]; Spin tubes, mAb2 cells)	increase of the specific productivity ([2]; day 10, Spin tubes, mAb2 cells)	cell density ([3]; 83 μM DIDS, day 7 (WD7), microplates, versus control)	titre multiplied by factor ([3]; 83 μM DIDS, end of culture day 14 (WD14), microplates, versus control)	viability ([3]; compared to the control, until day 12, DIDS 0.4 μM to 83 μM)	cell viability (recombinant CHO cells [4]) [%]	cell viability (recombinant CHO cells [5])
O=S(=O)([O-])c1cc(N=C=S)ccc1/C=C/c1ccc(N=C=S)cc1S(=O)(=O)[O-].[Na+].[Na+] [DIDS, 4,4′-diisothiocyanostilbene-2,2′-disulfonic acid]	1.4	not toxic	increase	increase	not toxic	about 10 days	about 20%	double	1.4	maintained	–	–
CCCC(=O)[O-].[Na+] [sodium butyrate]	–	–	–	–	–	–	–	–	–	–	15	less than 45%

— patent US10745663B2, “Methods for modulating production profiles of recombinant proteins” (ARES TRADING S.A., priority 2015, dated 2020)
